Patent publication US20240093191A1, “COMPOSITIONS AND METHODS FOR TREATING DISEASE ASSOCIATED WITH DUX4 OVEREXPRESSION” (RESEARCH INSTITUTE AT NATIONWIDE CHILDREN'S HOSPITAL, priority 2021, published 2024)

Columns and labels:
mir-675-5p [1] = test: ddPCR of mir-675-5p in drug-treated DUX4-transfected HEK293 cells; format: cell-based, human; conditions: vs ethanol vehicle
Experimental: (§1) Digital Droplet PCR (ddPCR). For mir-675 and mi405 constructs, RNA extraction was carried out as described for QPCR above. For cDNA synthesis, the TaqMan advanced cDNA synthesis kit (Thermo Fisher) was used and cDNA was prepared by following manufacturer's instructions. ddPCR was carried out using 1× ddPCR Supermix for probes (No dUTP) (Bio-Rad), 1× commercially available mir-675 advanced TaqMan probe, or a custom made mi405 advanced TaqMan probe (ThermoFisher) and 50 ng of cDNA. For DUX4 cDNA synthesis, the High-Capacity cDNA Reverse Transcription Kit (Applied Biosystems) was used according to manufacturer's instructions. Within the same cDNA reaction, 1×RT random hexamer primers and 25 pmoles of the Oligo(dT) primer were used to generate cDNA for DUX4 and DUX4-responsive biomarkers and for mouse Rpl13A, used as a reference gene. To quantify DUX4, the ddPCR reaction mixture (20 μL) contained 1× ddPCR Evagreen Supermix (Bio-Rad), 1 μM of forward and reverse DUX4 primers (Sharma et al., J Genet Syndr Gene Ther 2016 August; 7(4):303. doi: 10.4172/2157-7412.1000303. Epub 2016 Aug. 8), and 50 ng of cDNA. To quantify Rpl13A and DUX4-responsive biomarkers (Trim36 and Wfdc3), the 1× ddPCR Supermix for probes (No dUTP) and TaqMan specific probes were used for each of the genes. Droplets were generated using the Automatic Droplet generator QX200 AutoDG (Bio-Rad), the reactions were amplified in a C1000 Touch™ Thermal Cycler with 96-Deep Well Reaction Module (Bio-Rad). Cycling conditions were set up following the QX200 ddPCR Evagreen Supermix protocol. All assays are compatible with an annealing temperature of 58° C. Droplets were then read using the QX200 droplet reader (Bio-Rad). Finally, data were analyzed using the QuantaSoft analysis software (Bio-Rad). For quantification, each reaction of 20 μL was estimated to give at least 10,000 acceptable droplets.
Three small molecule candidates (β-estradiol, a combination of β-estradiol+medroxyprogesterone acetate (MPA), and melatonin) were tested for their ability to upregulate mir-675-5p in HEK293 cells and in human myotubes. HEK293 cells normally express minimal amounts of mir-675. […] 24 hours after treatment, mir-675-5p expression was measured by Droplet Digital PCR (ddPCR).
In FIG. 28, β-estradiol, medroxyprogesterone acetate (MPA) and melatonin increased mir-675 expression and reduced the expression of DUX4 and DUX4-induced biomarker TRIM43 in HEK293 cells. […] The effects of these drugs were evaluated by comparison to ethanol (vehicle)-treated cells. […] The quantification (percent change) of gene expression from HEK293 cells treated with β-estradiol, β-estradiol+MPA, or melatonin was measured using droplet digital PCR (ddPCR) and is reported in Table 3 set out below. […]

DUX4 [2] = test: ddPCR of DUX4 in drug-treated FSHD myotubes; format: cell-based, human; conditions: for DUX4 (% decrease): 20 μM
Text: (§2) Primary Cell Culture. 15A, 17A sand 18A FSHD human myoblasts and 15V control human myoblasts were provided by the UMMS Wellstone Center for FSHD and have been previously characterized [Jones et al., Hum. Mol. Genet. 21: 4419-4430 (2012)]. Previously immortalized 15A cell lines have a single 4qA permissive allele. […] 15V cell lines have two 4qB non-permissive alleles. Cells were propagated by feeding them every two days with new LHCN medium [4:1 DMEM:Medium 199 (Gibco) supplemented with 15% characterized FBS (Corning), 0.02 M HEPES (Thermo Fisher), 0.03 μg/mL ZnSO4 (Honeywell Fluka), 1.4 μg/mL Vitamin B12 (Sigma-Aldrich), 0.055 μg/mL dexamethasone (Sigma-Aldrich), 1% antibiotics/antimycotics (Gibco), 2.5 ng/mL hepatocyte growth factor (Millipore) and 10 ng/mL basic fibroblast growth factor (Millipore)]. For differentiation, myoblasts were switched to a differentiation medium [4:1 DMEM: Medium 199 (Gibco) supplemented with 15% KnockOut Serum Replacement (ThermoFisher Scientific), 2 mM L-glutamine (Gibco), 1% antibiotics/antimycotics (Gibco), 1 mM sodium pyruvate (Gibco) and 20 mM HEPES (ThermoFisher Scientific)] when cells were at >90% confluency. Before adding differentiation medium, cells were washed with PBS (Gibco). Cells were seeded with new differentiation medium every three days for up to 7 days. To detach cells, TrypLE™ Express, phenol red (ThermoFisher Scientific) was used.
as §1
(§3) Next, the effects of the three treatment regimens were tested on the expression of endogenous mir-675-5p, DUX4 and TRIM43 in 15A, 17A and 18A FSHD differentiated muscle cell lines (myotubes) (FIG. 29 and Table 4). […] Mol. Genet. 21: 4419-30 (2012)]. In FIG. 29, β-estradiol, medroxyprogesterone acetate (MPA) and melatonin increased mir-675 expression and reduced the expression of DUX4 and the DUX4-induced biomarker TRIM43 in three FSHD affected myotube lines. Droplet digital PCR (ddPCR) was used to measure mir-675-5p, DUX4 and TRIM43 levels in 15A (A), 17A (B) and 18A (C) FSHD affected myotubes five days after differentiation. […]

DUX4 [3] = test: ddPCR of transfected DUX4 in drug-treated HEK293 cells; format: cell-based, human; conditions: vs ethanol vehicle
Experimental: as §1, with “Cycling conditions were set up following the QX200 ddPCR Evagreen Supermix protocol. All assays are compatible with an annealing temperature of 58° C.” left out
Three small molecule candidates (β-estradiol, a combination of β-estradiol+medroxyprogesterone acetate (MPA), and melatonin) were tested for their ability to upregulate mir-675-5p in HEK293 cells and in human myotubes. […] 24 hours after treatment, mir-675-5p expression was measured by Droplet Digital PCR (ddPCR). […]

TRIM43 [4] = test: ddPCR of TRIM43 in drug-treated FSHD myotubes; format: cell-based, human; conditions: for TRIM43 (% decrease): 20 μM; for reduction of TRIM43 expression: 18A FSHD myotubes, 40 μM, added 4th day, collected 5th day of differentiation
Text: as §2, §1, §3

mir-675-5p [5] = test: ddPCR of mir-675-5p in drug-treated FSHD myotubes; format: cell-based, human; conditions: 20 μM
Text: as §2, §1, §3

TRIM43 [6] = test: ddPCR of TRIM43 in drug-treated DUX4-transfected HEK293 cells; format: cell-based, human; conditions: for TRIM43 (% decrease): vs ethanol vehicle
Experimental: as §1
Three small molecule candidates (β-estradiol, a combination of β-estradiol+medroxyprogesterone acetate (MPA), and melatonin) were tested for their ability to upregulate mir-675-5p in HEK293 cells and in human myotubes. HEK293 cells normally express minimal amounts of mir-675. HEK293 cells were treated with (1) 20 μM β-estradiol alone; (2) 10 μM or 20 μM β-estradiol+MPA; or (3) 20 μM or 40 μM melatonin. 24 hours after treatment, mir-675-5p expression was measured by Droplet Digital PCR (ddPCR).
In FIG. 28, β-estradiol, medroxyprogesterone acetate (MPA) and melatonin increased mir-675 expression and reduced the expression of DUX4 and DUX4-induced biomarker TRIM43 in HEK293 cells. Droplet Digital PCR (ddPCR) was carried out to measure mir-675-5p, DUX4 and TRIM43 levels. HEK293 cells were transfected with DUX4 and were treated with two drugs individually (i.e., β-estradiol and melatonin) or with a combination of β-estradiol and MPA at 10, 20 or 40 μM at the time of transfection. The effects of these drugs were evaluated by comparison to ethanol (vehicle)-treated cells. Numbers correspond to n=3 independent experiments (ANOVA, P<0.0001). The quantification (percent change) of gene expression from HEK293 cells treated with β-estradiol, β-estradiol+MPA, or melatonin was measured using droplet digital PCR (ddPCR) and is reported in Table 3 set out below. Anti-mir-675 is an antagomiR targeting the mature sequence of mir-675-5p, inhibiting its function as inhibitor of DUX4 gene expression. CMV.DUX4-mir-675Res is an expression plasmid encoding a DUX4 mutant sequence. […]

mir-675 = conditions: published gene expression studies; cited from earlier work
ZSCAN4 = test: ddPCR of ZSCAN4 in drug-treated 18A FSHD myotubes; format: cell-based, human; conditions: 40 μM, added 4th day, collected 5th day of differentiation
Experimental: 18A FSHD affected muscles cell lines were treated with increasing concentrations of Pyrazinamide or Sorafenib at the 4th day of differentiation into myotubes. Cells were collected at the 5th day of differentiation. RNA was extracted and ddPCR gene expression analysis on DUX4, TRIM43 and ZSCAN4 was carried out. As a result, 40 μM of Pyrazinamide reduced TRIM43 and ZSCAN4 expression by 35±7% (ANOVA, P=0.0378, N=3 independent experiments) and 42±6% (ANOVA, P=0.0043, N=3 independent experiments), respectively (FIG. 35). Sorafenib reduced DUX4, TRIM43 and ZSCAN4 expression in a dose dependent manner, where it reached maximum inhibition when used at a concentration of 40 μM. At the latter, Sorafenib reduced DUX4, TRIM43 and ZSCAN4 expression by 40±10% (ANOVA, P=0.0486, N=3 independent experiments), 70±4% (ANOVA, P=0.0003, N=3 independent experiments) and 68±3% (ANOVA, P=0.0001, N=3 independent experiments), respectively (FIG. 35).

Compound	mir-675-5p (% increase) (mir-675-5p [1]; 20 μM) [%]	DUX4 (% decrease) (DUX4 [2]; 15A 5DD myotubes, N = 6)	DUX4 (% decrease) (DUX4 [2]; 17A 5DD myotubes, N = 3)	DUX4 (% decrease) (DUX4 [2]; 18A 5DD myotubes, N = 3)	DUX4 (% decrease) (DUX4 [3]; 20 μM)	TRIM43 (% decrease) (TRIM43 [4]; 15A 5DD myotubes, N = 6)	TRIM43 (% decrease) (TRIM43 [4]; 17A 5DD myotubes, N = 3)	TRIM43 (% decrease) (TRIM43 [4]; 18A 5DD myotubes, N = 3)	mir-675-5p (% increase) (mir-675-5p [5]; 15A 5DD myotubes, N = 6)	mir-675-5p (% increase) (mir-675-5p [5]; 17A 5DD myotubes, N = 3)	mir-675-5p (% increase) (mir-675-5p [5]; 18A 5DD myotubes, N = 3)	TRIM43 (% decrease) (TRIM43 [6]; 20 μM, HEK293)	reduction of TRIM43 expression (TRIM43 [4]) [%]	mir-675 expression (mir-675)	reduction of ZSCAN4 expression (ZSCAN4) [%]	other results
C[C@]12CC[C@@H]3c4ccc(O)cc4CC[C@H]3[C@@H]1CC[C@@H]2O [β-estradiol]	92 ± 34	70 ± 38 | *, %	63 ± 19 | *, %	49 ± 19 | *, %	significant decrease	46 ± 40 | NS, %	31 ± 12 | *, %	57 ± 07 | ** , %	47 ± 11 | *, %	38 ± 09 | *, %	382 ± 44 | ***, %	significant decrease	–	–	–	mir-675-5p (% increase) (mir-675-5p [1]; 10 μM): 22 ± 06%
NC(=O)c1cnccn1 [Pyrazinamide, pyrazine-2-carboxamide]	–	–	–	–	–	–	–	–	–	–	–	–	35±7	upregulated mir-675 expression	42±6	–
CNC(=O)c1cc(Oc2ccc(NC(=O)Nc3ccc(Cl)c(C(F)(F)F)c3)cc2)ccn1 [Sorafenib, 4-[4-[[4-chloro-3-(trifluoromethyl)phenyl]carbamoylamino]phenoxy]-N-methylpyridine-2-carboxamide]	–	–	–	–	–	–	–	–	–	–	–	–	70±4	upregulated mir-675 expression	68±3	reduction of DUX4 expression (DUX4 [2]; 18A FSHD myotubes, 40 μM, added 4th day, collected 5th day of differentiation): 40±10%
COc1ccc2[nH]cc(CCNC(C)=O)c2c1 [Melatonin, melatonin]	229 ± 53	88 ± 40 | **, %	55 ± 09 | *, %	38 ± 17 | *, %	90 ± 01%	75 ± 45 | *, %	30 ± 12 | *, %	70 + 15 | ***, %	44 ± 16 | *, %	48 ± 09 | **, %	154 ± 59 | *, %	52 ± 01%	–	mir-675 was induced	–	mir-675-5p (% increase) (mir-675-5p [1]; 40 μM): 246 ± 53%; DUX4 (% decrease) (DUX4 [3]; 40 μM): 93 ± 01%; +anti-mir-675 (300 nM) TRIM43 (% increase) (TRIM43 [6]; 20 μM, HEK293, co-transfected anti-mir-675 300 nM): 21 ± 01%; TRIM43 (% decrease) (TRIM43 [6]; 40 μM, HEK293): 58 ± 01%; +CMV.DUX4-mir-675Res TRIM43 (% decrease) (TRIM43 [6]; 40 μM, HEK293 transfected with CMV.DUX4-mir-675Res): 0.1 ± 16%
